US9925240B2, “Methods of treating and preventing cancer drug resistance” (Genentech, Inc., priority 2013, dated 2018)

Tests used:
HCC4006-ER cells = assay: Cell viability assay (CellTiter-Glo) in erlotinib-resistant HCC4006-ER cells; type: cell-based; details: for Ability to overcome resistance to erlotinib (cell viability, FIG. 3 and FIG. 5): 72 h, in combination with erlotinib
Method: 10^3 cells were plated in each well of 384-well plate. 24 hours after plating, added indicated concentration drug to each well. 72 hours after dosing, added CellTiter-Glo Reagent (CellTiter Glo Luminescent Cell Viability Assay, Promega) to each well, incubate the plate at room temperature for 10 minutes, record luminescence by EnVision 2101 Multilabel Reader (PerkinElmer).
Drug-sensitive cells (HCC4006 and HCC827) were treated with 2 uM erlotinib for 2 months. Fresh media containing 2 uM erlotinib were replaced every 3 to 4 days. Viable cells were collected as erlotinib-resistant cells.

HCC4006 cells = assay: Clonogenic assay (crystal violet) in HCC4006 cells; type: cell-based; details: erlotinib 1 μM plus PD173074 0.5 μM, continuous treatment, stained at 6 weeks
Method: 10^5 cells were plated in 10 cm^2 plate. 24 hours after plating, media was removed and replaced with media containing indicated drugs. Fresh media was replaced every 3 to 4 days until cells reached confluence (4 weeks) or 6 weeks to stop culture. Media was removed, cells were washed with PBS, then stained with 0.5% crystal violet for 20 minutes at room temperature. Dye was removed, cell monolayers were washed with water, dry the plate and take a picture as record.

| SMILES | Ability to overcome resistance to erlotinib (cell viability, FIG. 3 and FIG. 5) (HCC4006-ER cells; HCC4006-ER cells) | Screen of small molecule inhibitors in the presence or absence of erlotinib (growth inhibition, FIG. 8) (HCC4006-ER cells; HCC4006-ER cells, with or without erlotinib) | Development of resistance to erlotinib (FIG. 6) (HCC4006 cells) | Sensitivity of cells to erlotinib (cell viability, annexin V, FIG. 1A-C) (HCC4006-ER cells; HCC4006-ER vs parental HCC4006, 72 h) |
| --- | --- | --- | --- | --- |
| CCN(CC)CCCCNc1ncc2cc(-c3cc(OC)cc(OC)c3)c(NC(=O)NC(C)(C)C)nc2n1 [PD173074, N-[2-[[4-(diethylamino)butyl]amino]-6-(3,5-dimethoxyphenyl)pyrido[2,3-d]pyrimidin-7-yl]-N′-(1,1-dimethylethyl)-urea] | overcame resistance to erlotinib | could reverse resistance to erlotinib | can suppress the development of resistance to erlotinib | – |
| Nc1nc(Nc2ccc3c(c2)CCC(N2CCCC2)CC3)nn1-c1cc2c(nn1)-c1ccccc1CCC2 (centres unmarked) [R428] | cannot overcome resistance to erlotinib | – | – | – |
| C#Cc1cccc(Nc2ncnc3cc(OCCOC)c(OCCOC)cc23)c1 [erlotinib, N-(3-ethynylphenyl)-6,7-bis(2-methoxyethoxy)-4-quinazolinamine] | – | – | – | resistant |
